Where no end group is shown, it is not given here.
Experiments:
[1] = test system: human erythrocytes; test: Hemolytic assay for complement (C) activity, antibody-sensitised human erythrocytes; type: cell-based; conditions: at the dilutions used in these assays
Method: Hemolytic assays for C activity were performed using human erythrocytes sensitised with an in-house rabbit polyclonal antiserum against human CD55 as described ([Cole et al., 2006]). Sensitised erythrocytes (2% in CFD; 50 μl/well) were incubated for 30 min with various dilutions of human serum in CFD in the absence or presence of test peptides or blocking anti-CD59 antibodies. Plates were centrifuged and percent lysis calculated as above. Statistical analyses were carried out using unpaired Student's t-tests.

[2] = biological target: T1, CD59 (Homo sapiens, UniProt P13987); test: biochemical; type: binding; conditions: SPR steady state, immobilised CD59, 25 °C; read-out: KD, printed in Fig. 3C
T1 construct: Recombinant soluble CD59 comprising amino acids 1–76 with an 11 amino acid Ser/Gly linker; made in house
T1 sequence (P13987 26-101): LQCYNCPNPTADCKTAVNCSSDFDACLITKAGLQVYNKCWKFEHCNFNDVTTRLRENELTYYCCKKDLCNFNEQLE
Method: All surface plasmon resonance (SPR) analyses were carried out on a Biacore T100 (Biacore International SA, Stevenage, UK). Proteins were coupled to the sensor chip surface using thiol-based coupling chemistry. Briefly, recombinant CD59 was subjected to mild reduction for 16 h at 20 °C using TCEP at a molar ratio TCEP:CD59 of 3:1 [120 μm:40 μM] to reduce the terminal Cys residue while leaving internal disulphide bonds intact. An S-series CM5 carboxy-dextran coated chip was then activated using NHS/EDC (N-hydroxysuccinimide/1-ethyl-3(3-dimethyl aminopropyl)-carbodiimide hydrochloride) according to the manufacturer's protocol. The activated surface was further modified by flowing 80 mM 2-(2-pyridinyldithio)-ethaneamine hydrochloride (PDEA) in 0.1 M sodium borate (pH 8.5) to introduce reactive disulphide groups into the matrix. Reduced CD59 was flowed over this surface at pH 3.4 (10 mM NaCitrate) and coupling through the free amino-terminal thiol in the reduced CD59 monitored in real time. Blocking of residual activated residues was achieved by flowing 50 mM L-cysteine in 100 mM NaAcetate pH 4 containing 1 M NaCl. […] For all kinetic analyses, data were collected at 25 °C at a flow rate of 30 μl/min. […] Interactions were analysed in HBS containing 0.05% surfactant P20 and 3 mM EDTA. Data were evaluated using Biacore T100 Evaluation software.

GLAWEPWRLIYSKNDLPLVPC [ILY peptide]
lysis by peptide itself above background [1]: neither “sense” nor jumbled peptide caused any lysis above background | Kd [2]: 4.92 µM
